pIC50: −log10 of the molar value. Converted amounts (≈) assume the structure as drawn. The source made the active and inactive calls. The calls are words filed in the database; no cut-off is given here.
How the values were obtained:
[1] = test system: Mycobacterium tuberculosis; test: Antitubercular activity against Mycobacterium tuberculosis H37Rv ATCC 27294 cultured in 7H12 media assessed as reduction in bacterial growth incubated for 7 days by resazurin dye fluorescence based assay; assay type: functional; conditions: H37Rv ATCC 27294, 168 h, time 7 day
[2] = test system: Mycolicibacterium vaccae; test: Antitubercular activity against Mycobacterium vaccae assessed as reduction in bacterial growth incubated for 42 hrs by broth microdilution assay; assay type: functional
[3] = test system: Vero; test: Cytotoxicity against African green monkey Vero cells assessed by reduction in cell viability incubated for 72 hrs by resazurin dye fluorescence based assay; conditions: Chlorocebus sabaeus
[4] = test system: Mycolicibacterium aurum; test: Antitubercular activity against Mycobacterium aurum assessed as reduction in bacterial growth incubated for 42 hrs by broth microdilution assay; assay type: functional
[5] = test system: Mycobacterium tuberculosis; test: Antitubercular activity against Mycobacterium tuberculosis H37Rv ATCC 27294 cultured in GAS media assessed as reduction in bacterial growth incubated for 7 days by resazurin dye fluorescence based assay; assay type: functional; conditions: H37Rv ATCC 27294, 168 h, time 7 day
[6] = molecular target: T1, Decaprenylphosphoryl-beta-D-ribose oxidase (Mycobacterium tuberculosis (strain ATCC 25618 / H37Rv)) (UniProt P9WJF1); test: Inhibition of Mycobacterium tuberculosis H37Rv DprE1 at 100 times of MIC incubated for 24 hrs by [14C]-acetate radioligand based thin layer chromatography
T1 sequence (whole entry): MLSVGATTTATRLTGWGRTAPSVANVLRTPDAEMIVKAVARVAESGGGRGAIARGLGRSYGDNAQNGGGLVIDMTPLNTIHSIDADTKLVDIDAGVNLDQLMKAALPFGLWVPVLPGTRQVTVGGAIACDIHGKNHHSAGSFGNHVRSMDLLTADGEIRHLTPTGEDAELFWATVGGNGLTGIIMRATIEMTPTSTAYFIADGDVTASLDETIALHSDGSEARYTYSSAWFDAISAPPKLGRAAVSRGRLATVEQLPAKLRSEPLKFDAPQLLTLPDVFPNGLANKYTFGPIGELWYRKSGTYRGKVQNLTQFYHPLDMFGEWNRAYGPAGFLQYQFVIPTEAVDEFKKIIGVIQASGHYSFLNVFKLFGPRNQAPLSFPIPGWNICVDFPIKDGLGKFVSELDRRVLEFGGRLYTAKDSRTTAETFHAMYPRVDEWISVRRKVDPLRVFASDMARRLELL

[7] = molecular target: T1, Decaprenylphosphoryl-beta-D-ribose oxidase (Mycobacterium tuberculosis (strain ATCC 25618 / H37Rv)); test: Inhibition of reactivation of Mycobacterium tuberculosis H37Rv DprE1 at 100 times of MIC incubated for 24 hrs by [14C]-acetate radioligand based thin layer chromatography

Compound	MIC [1] [µM]	MIC [2] [nM]	pIC50 [3]	MIC [4] [µM]	MIC [5] [µM]	inhibition [6]	inhibition [7]
COc1ccc(CNC(=O)c2sc3c([N+](=O)[O-])cc(C(F)(F)F)cc3[n+]2[O-])cc1	0.01 (≈ 0.00427 µg/mL)	< 1	4.12	> 1	0.01 (≈ 0.00427 µg/mL)		
O=[N+]([O-])c1cn2c(n1)OC[C@@H](OCc1ccc(OC(F)(F)F)cc1)C2 [PRETOMANID]	0.08 (≈ 0.0287 µg/mL)		< 4.00		0.2 (≈ 0.0719 µg/mL)		
C[C@H]1COC2(CCN(c3ccc([N+](=O)[O-])cc3C#N)CC2)O1	2.4 (≈ 0.728 µg/mL)		< 4.00		2 (≈ 0.607 µg/mL)		
N#Cc1cc([N+](=O)[O-])ccc1-n1cnc2c(N)ncnc21	> 5		< 4.00		> 5		
C[C@H]1COC2(CCN(c3nc(=O)c4cc(C(F)(F)F)cc([N+](=O)[O-])c4s3)CC2)O1 [BTZ-043]	< 0.004	< 1	< 4.00	> 1	< 0.004	Active	
N#Cc1cc([N+](=O)[O-])ccc1Oc1ccc(Cl)c(Cl)c1	> 50		< 4.30		45 (≈ 13.9 µg/mL)		
CC(Nc1ccc([N+](=O)[O-])cc1C#N)c1ccc(Cl)cc1 (stereo not given)	> 5		4.54		5 (≈ 1.51 µg/mL)		
C[C@H]1COC2(CCN(C(=O)c3sc4c([N+](=O)[O-])cc(C(F)(F)F)cc4[n+]3[O-])CC2)O1	0.23 (≈ 0.103 µg/mL)	15 (≈ 0.00671 µg/mL)	4.10	> 1	0.24 (≈ 0.107 µg/mL)	Active	
N#Cc1cc([N+](=O)[O-])ccc1NCc1cccc(F)c1	> 5		< 4.00		5 (≈ 1.36 µg/mL)		
O=C(NCc1ccc(N2CCC(c3ccc(OC(F)(F)F)cc3)CC2)cc1)c1sc2c([N+](=O)[O-])cc(C(F)(F)F)cc2[n+]1[O-]	0.025 (≈ 0.016 µg/mL)	20 (≈ 0.0128 µg/mL)	4.09	> 1	0.07 (≈ 0.0448 µg/mL)		
N#Cc1cc([N+](=O)[O-])ccc1N1CCC(Cc2ccccc2)CC1	> 5		< 4.00		2 (≈ 0.643 µg/mL)		
CCc1nc2ccc(Cl)cn2c1C(=O)NCc1ccc(N2CCC(c3ccc(OC(F)(F)F)cc3)CC2)cc1 [TELACEBEC]	0.03 (≈ 0.0167 µg/mL)	4 (≈ 0.00223 µg/mL)	< 4.00	> 1	0.007 (≈ 0.0039 µg/mL)		
O=C(NCc1ccc(N2CCC(c3ccc(OC(F)(F)F)cc3)CC2)cc1)c1nc2cc(C(F)(F)F)cc([N+](=O)[O-])c2s1	0.24 (≈ 0.15 µg/mL)	125 (≈ 0.0781 µg/mL)	< 4.00	> 1	0.13 (≈ 0.0812 µg/mL)	Active	inactive
N#Cc1cc([N+](=O)[O-])ccc1N1CCN(c2ccc(C(F)(F)F)cc2)CC1	> 5		< 4.00		5 (≈ 1.88 µg/mL)		
NC(=O)c1sc2c([N+](=O)[O-])cc(C(F)(F)F)cc2[n+]1[O-] [CYCLAPOLIN 9]	1.2 (≈ 0.369 µg/mL)				2.19 (≈ 0.673 µg/mL)		
O=C(NCc1ccc2c(c1)CCO2)c1sc2c([N+](=O)[O-])cc(C(F)(F)F)cc2[n+]1[O-]	0.01 (≈ 0.00439 µg/mL)	< 1	< 4.00	> 1	< 0.002		
N#Cc1cc([N+](=O)[O-])ccc1NC1CC1	> 5		< 4.00		> 5		
COc1ccc(CNC(=O)c2nc3cc(C(F)(F)F)cc([N+](=O)[O-])c3s2)cc1	0.7 (≈ 0.288 µg/mL)	8 (≈ 0.00329 µg/mL)	< 4.00	> 1	0.14 (≈ 0.0576 µg/mL)	Active	inactive
CCOC(=O)c1sc2c([N+](=O)[O-])cc(C(F)(F)F)cc2[n+]1[O-]	> 5				4.97 (≈ 1.67 µg/mL)		
CC(C)(C)OC(=O)N1CCC(Oc2ccc(Nc3ccc([N+](=O)[O-])cc3C#N)cc2)CC1	> 5		< 4.00		3 (≈ 1.32 µg/mL)		
N#Cc1cc([N+](=O)[O-])ccc1Nc1ccc(OC2CCNCC2)cc1	> 5		< 4.00		> 5		
N#Cc1cc([N+](=O)[O-])ccc1NCc1ccccn1	> 5		< 4.00		> 5		
COc1ccc(CNc2ccc([N+](=O)[O-])cc2C#N)cc1	> 5		< 4.00		> 5		
O=c1nc(N2CCN(CC3CCCCC3)CC2)sc2c([N+](=O)[O-])cc(C(F)(F)F)cc12						Active	

From ChEMBL document CHEMBL4673200, “Hydride-induced Meisenheimer complex formation reflects activity of nitro aromatic anti-tuberculosis compounds” (RSC Med Chem, 2021)
